Numbered stars: 1 amine (or outer) side, 2 acyl side, 3 side chain; on linkers, the order of the positions; unused ones are H or OH. Bridge positions count the residues as written; N and C are the ends. Square brackets hold non-standard residues; d marks the D form. Peptide text beside a SMILES is read from it. I, II: the chains in the order shown. * marks the point of attachment. NOTA = O=C(O)CN1CCN(CC(=O)O)CCN(CC(=O)*)CC1; X1 = O=C(CCC(=O)[*:2])NCCOCCOCC(=O)[*:1]; 2Thi = N[C@@H](Cc1cccs1)C(=O)O; Nle = CCCC[C@H](N)C(=O)O; AEEA = NCCOCCOCC(=O)O; βAla = NCCC(=O)O
Tests used:
[1] = Solubility in physiological media; assay type: physicochemical; details: 64Cu-labeled peptide; DMF-PBS (10/90 v/v) used to solubilize
Description: Our cyclotron facility provides ^64Cu isotope on a routine basis for research purposes using a target system developed in collaboration with Advanced Cyclotron Systems Inc. (ACSI, Richmond, British Columbia, Canada). ^64Cu was prepared on an EBCO TR-19 cyclotron (EBCO Technologies, Vancouver, Canada) by the ^64Ni(p, n)^64Cu nuclear reaction using an enriched ^64Ni target electroplated on a rhodium disk. [^64Cu]CuCl2 was recovered from the target following the procedure of McCarthy et al. and converted to [^64Cu]copper[II] acetate by dissolving the [^64Cu]CuCl2 in ammonium acetate (0.1 M; pH 5.5). Peptides were labeled with ^64Cu following conditions optimized in our laboratory. Briefly, peptides (5 μg) were dissolved in a 0.1 M ammonium acetate buffer at pH 5.5 with [^64Cu]Cu(OAc)2 (8 to 10 mCi, 296 to 370 MBq) in a total volume of 250 to 300 μL, and then, the resulting solution was incubated at 100°C for 10 min. The labeled product was purified by HPLC using a C-18 column and a radio-detector. The amount of radiolabeled peptide was determined by the peak area of the tracer in the UV-chromatogram compared to the UV peak area of the standard unlabelled peptide (Figure 3). […] The peptide fraction was collected, evaporated and counted in a Capintec radioisotope calibrator (Capintec, Inc., NJ, USA) to calculate the specific activity of the product.

GRPR [2] = target: GRPR (Homo sapiens, UniProt P30550); assay: Competitive binding assay with [125I-Tyr4]bombesin on PC3 cells; set-up: host or cells: PC3 cells (whole, adherent cells in 24-well plates); details: read-out: Ki (affinity for GRPR)
GRPR (Homo sapiens, UniProt P30550), sequence (P30550 whole entry): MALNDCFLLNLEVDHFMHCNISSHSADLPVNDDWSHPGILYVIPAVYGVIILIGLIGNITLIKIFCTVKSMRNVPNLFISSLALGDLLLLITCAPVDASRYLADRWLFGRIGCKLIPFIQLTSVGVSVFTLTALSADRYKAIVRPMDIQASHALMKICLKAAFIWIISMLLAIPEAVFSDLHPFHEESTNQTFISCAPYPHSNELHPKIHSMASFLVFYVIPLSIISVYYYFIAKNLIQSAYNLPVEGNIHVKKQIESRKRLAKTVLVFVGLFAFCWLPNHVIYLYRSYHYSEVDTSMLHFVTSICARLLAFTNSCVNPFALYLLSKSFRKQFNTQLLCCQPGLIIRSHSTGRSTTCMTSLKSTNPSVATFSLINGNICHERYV
Description: Competition assays were performed in 24-well plates using PC3 cells. The cells were cultured until near confluence, and the medium was replaced by 400 μL of reaction medium (RPMI complemented with 2 mg/mL BSA, 4.8 mg/mL HEPES, 1 U/mL penicillin G and 1 μg/mL streptomycin). For the assay, equal volumes of radioactive and non-radioactive ligands were added. […] The plates were incubated for 40 min at 37°C with agitation. After the incubation, the reaction medium was removed, and the cells were washed three times with PBS at room temperature. The cells were harvested and counted in a gamma counter (Cobra II auto-gamma counter, Packard, MN, USA). Experiments were realized three times in triplicate. Data were analyzed with GraphPad Prism 5 Software (GraphPad Software, San Diego, CA, USA) to determine the IC50. Finally, the Ki was determined using Cheng and Pursoff's formula [32].

GRPR [3] = target: T1, GRPR (Mus musculus, UniProt P21729); assay: Biodistribution in Balb/c mice (in vivo GRPR-targeting efficacy); details: 64Cu-labeled peptide, 30 min p.i.
T1 construct: using the pancreas, a GRPR-rich tissue, as a target for specific receptor-mediated accumulation; from tissue; host or cells: Female Balb/c mice, in vivo; organs (pancreas and others) collected 30 min p.i
T1 sequence (P21729 whole entry): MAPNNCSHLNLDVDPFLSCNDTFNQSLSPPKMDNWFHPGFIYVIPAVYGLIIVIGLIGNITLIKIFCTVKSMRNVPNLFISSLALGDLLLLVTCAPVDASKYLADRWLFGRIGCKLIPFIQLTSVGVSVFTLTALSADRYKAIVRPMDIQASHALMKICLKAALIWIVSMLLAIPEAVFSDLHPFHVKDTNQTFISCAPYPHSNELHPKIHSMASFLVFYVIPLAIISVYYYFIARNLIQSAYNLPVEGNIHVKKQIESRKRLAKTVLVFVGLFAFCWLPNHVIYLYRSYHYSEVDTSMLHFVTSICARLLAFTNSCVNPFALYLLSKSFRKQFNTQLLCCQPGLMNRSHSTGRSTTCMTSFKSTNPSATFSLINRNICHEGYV
Description: To determine the in vivo GRPR-targeting efficacy of labeled peptides, biodistribution of female Balb/c mice were realized with a minimum of 4 mice for each condition. Briefly, mice were injected with 370 to 740 kBq (10 to 20 μCi; 100 μL) of either ^64Cu/NOTA-monomer, ^64Cu/NOTA-dimer 1 or ^64Cu/NOTA-dimer 2 via the caudal vein. The animals were sacrificed with CO2 at 30 min post-injection [p.i.]. Organs of interest were then collected, weighed and measured in a gamma counter. The results were expressed as percentage of the injected dose per gram of tissue [%ID/g].

[4] = assay type: in vitro ADME; details: 24 h
Description: Plasma and in vivo stability studies were realized as previously described by our group. Briefly, after peptide reconstitution, studies were carried out by incubating the tracers in mouse plasma for a period of 24 h and by injecting around 15 to 25 MBq (400 to 650 μCi; 100 μL) of ^64Cu/peptide to female Balb/c mice; 3 mice per peptide. After 24 h, a portion of the incubation mixtures in plasma or blood samples taken from the back paw were quenched with equal amounts of MeCN, chilled (4°C) and centrifuged, and the supernatant was assayed by HPLC. The stability was also determined by radio-TLC directly from plasma and blood samples without further handling; free ^64Cu and purified radiolabeled peptides were used as standards. The radio-TLCs were eluted on C-18-coated plastic sheets with 0.1 M sodium citrate buffer at pH 5.5 using an instant imager system for the radio-detection.

PC3 tumor = assay: in vivo; set-up: species or system Balb/c nude mice; details: Balb/c nude, mouse, 2 h
Description: (§1) Tumor-bearing Balb/c nude mice were injected with 370 to 740 kBq (10 to 20 μCi; 100 μL) of ^64Cu/NOTA-monomer and ^64Cu/NOTA-dimer 2 via the caudal vein and sacrificed with CO2 at different periods of time after injection. Organs of interest were then collected and weighed. -Radioactivity was measured in a gamma counter. The blocking experiments were realized by co-injecting 0.1 μmol of non-radiolabeled peptide. The results were expressed as %ID/g with a minimum of 3 mice for each condition.

in vivo = assay: in vivo; set-up: species or system Balb/c nude mice; details: Balb/c nude, mouse, total radioactivity; for tissue to tissue ratio at 0.5 h / tissue to tissue ratio at 2 h: iv
Description: as §1

In the case of `CCCC[C@H](NC(=O)[C@H](Cc1cccs1)NC(=O)[C@H](Cc1c[nH]cn1)NC(=O)CCNC(=O)[C@@H](NC(=O)[C@H](C)NC(=O)[C@H](Cc1c[nH]c2ccccc12)NC(=O)[C@H](CCC(N)=O)NC(=O)[C@@H](Cc1ccc(O)cc1)NC(=O)CCC(=O)NCCOCCOCC(=O)N[C@@H](CCCCNC(=O)CN1CCN(CC(=O)O)CCN(CC(=O)O)CC1)C(=O)NCCOCCOCC(=O)NCC(=O)N[C@H](Cc1ccc(O)cc1)C(=O)N[C@@H](CCC(N)=O)C(=O)N[C@@H](Cc1c[nH]c2ccccc12)C(=O)N[C@@H](C)C(=O)N[C@H](C(=O)NCCC(=O)N[C@@H](Cc1c[nH]cn1)C(=O)N[C@@H](Cc1cccs1)C(=O)N[C@@H](CCCC)C(N)=O)C(C)C)C(C)C)C(N)=O` [NOTA-dimer 2, BBN(6-14)-Suc-PEG-Lys(NOTA)-PEG-Gly-BBN(6-14)] (I: K(NOTA)[AEEA]G[dY]QWAV[βAla]H[2Thi][Nle]-NH2 / II: [dY]QWAV[βAla]H[2Thi][Nle]-NH2; linker I:N-II:N via X1), the “Solubility in physiological media” value [1] is reported as “poorly soluble”, the Ki (GRPR [2]) is reported as 1.76 ± 1.3 nM and the “Fold higher pancreas uptake than NOTA-monomer and NOTA-dimer 1” value (GRPR [3]; Balb/c mice) is reported as 3.6 fold. The Pancreas uptake (GRPR [3]; female Balb/c mice) was 57 ± 16 %ID/g.

For `CCCC[C@H](NC(=O)[C@H](Cc1cccs1)NC(=O)[C@H](Cc1c[nH]cn1)NC(=O)CCNC(=O)[C@@H](NC(=O)[C@H](C)NC(=O)[C@H](Cc1c[nH]c2ccccc12)NC(=O)[C@H](CCC(N)=O)NC(=O)[C@@H](Cc1ccc(O)cc1)NC(=O)CCC(=O)NCCOCCOCC(=O)N[C@@H](CCCCNC(=O)CN1CCN(CC(=O)O)CCN(CC(=O)O)CC1)C(=O)NCCOCCOCC(=O)NCC(=O)N[C@H](Cc1ccc(O)cc1)C(=O)N[C@@H](CCC(N)=O)C(=O)N[C@@H](Cc1c[nH]c2ccccc12)C(=O)N[C@@H](C)C(=O)N[C@H](C(=O)NCCC(=O)N[C@@H](Cc1c[nH]cn1)C(=O)N[C@@H](Cc1cccs1)C(=O)N[C@@H](CCCC)C(N)=O)C(C)C)C(C)C)C(N)=O` [^64Cu/NOTA-dimer 2, metal not drawn] (I: K(NOTA)[AEEA]G[dY]QWAV[βAla]H[2Thi][Nle]-NH2 / II: [dY]QWAV[βAla]H[2Thi][Nle]-NH2; linker I:N-II:N via X1), the “Stability in mouse plasma” value [4] was “stable”, the “Biodistribution Adrenal” value (PC3 tumor) was 11.56 ± 4.91 %ID/g and the “Biodistribution Blood” value (PC3 tumor) was 1.34 ± 0.15 %ID/g. For the same compound, the “Biodistribution Fat” value (PC3 tumor) was 0.68 ± 0.61 %ID/g, the “Biodistribution Lungs” value (PC3 tumor) was 5.07 ± 1.58 %ID/g and the “Biodistribution Pancreas” value (PC3 tumor) was 13.35 ± 7.38 %ID/g. For the same compound, the “Biodistribution Plasma” value (PC3 tumor) was 2.45 ± 0.27 %ID/g, the Tumor/pancreas ratio (PC3 tumor; iv) was 0.36 ± 0.09 and the tissue to tissue ratio at 0.5 h (in vivo; Tumor/blood ratio) was 1.39 ± 0.3. The tissue to tissue ratio at 2 h (in vivo; Tumor/blood ratio) was 4.09 ± 1.79, the tissue to tissue ratio at 0.5 h (in vivo; Tumor/kidney ratio) was 0.28 ± 0.09 and the tissue to tissue ratio at 2 h (in vivo; Tumor/kidney ratio) was 0.22 ± 0.11. The tissue to tissue ratio at 0.5 h (in vivo; Tumor/liver ratio) was 0.1 ± 0.01, the tissue to tissue ratio at 2 h (in vivo; Tumor/liver ratio) was 0.22 ± 0.07 and the tissue to tissue ratio at 0.5 h (in vivo; Tumor/muscle ratio) was 3.95 ± 1.98. The tissue to tissue ratio at 2 h (in vivo; Tumor/muscle ratio) was 4.46 ± 1.86, the tissue to tissue ratio at 0.5 h (in vivo; Tumor/pancreas ratio) was 0.89 ± 0.11 and the tissue uptake at 0.5 h (in vivo; Biodistribution Adrenal) was 9.23 ± 5.01 %ID/g. For the same compound, the tissue uptake at 0.5 h (in vivo; Biodistribution Blood) was 3.13 ± 0.67 %ID/g, the tissue uptake at 0.5 h (in vivo; Biodistribution Bone) was 0.78 ± 0.21 %ID/g and the tissue uptake at 2 h (in vivo; Biodistribution Bone) was 0.83 ± 0.19 %ID/g. The tissue uptake at 0.5 h (in vivo; Biodistribution Brain) was 0.38 ± 0.06 %ID/g, the tissue uptake at 2 h (in vivo; Biodistribution Brain) was 0.22 ± 0.05 %ID/g and the tissue uptake at 0.5 h (in vivo; Biodistribution Fat) was 1.86 ± 0.81 %ID/g. For the same compound, the tissue uptake at 0.5 h (in vivo; Biodistribution Heart) was 4.42 ± 1.59 %ID/g, the tissue uptake at 2 h (in vivo; Biodistribution Heart) was 2.68 ± 0.13 %ID/g and the tissue uptake at 0.5 h (in vivo; Biodistribution Kidney) was 17 ± 6.24 %ID/g. The tissue uptake at 2 h (in vivo; Biodistribution Kidney) was 26.4 ± 8.13 %ID/g, the tissue uptake at 0.5 h (in vivo; Biodistribution Liver) was 41.8 ± 5.58 %ID/g and the tissue uptake at 2 h (in vivo; Biodistribution Liver) was 23.1 ± 2.36 %ID/g. It also gave a tissue uptake at 0.5 h (in vivo; Biodistribution Lungs) of 7.22 ± 2.73 %ID/g, a tissue uptake at 0.5 h (in vivo; Biodistribution Muscle) of 1.59 ± 1.16 %ID/g and a tissue uptake at 2 h (in vivo; Biodistribution Muscle) of 1.13 ± 0.62 %ID/g. The tissue uptake at 0.5 h (in vivo; Biodistribution Pancreas) was 4.6 ± 0.57 %ID/g, the tissue uptake at 0.5 h (in vivo; Biodistribution Plasma) was 5.27 ± 1.27 %ID/g and the tissue uptake at 0.5 h (in vivo; Biodistribution Spleen) was 5.31 ± 1.43 %ID/g. It also gave a tissue uptake at 2 h (in vivo; Biodistribution Spleen) of 5.5 ± 2.61 %ID/g, a tissue uptake at 0.5 h (in vivo; Biodistribution Tumor) of 3.95 ± 0.26 %ID/g and a tissue uptake at 2 h (in vivo; Biodistribution Tumor) of 6.28 ± 2.87 %ID/g.

Reference: PMC3323469, “Comparative study of ^64Cu/NOTA-[D-Tyr^6,βAla^11,Thi^13,Nle^14]BBN(6-14) monomer and dimers for prostate cancer PET imaging” (EJNMMI Research, 2012)
